# Measured values reported in patent US12410148B2, “Antibody drug conjugates” (Pharma Mar, S.A., priority 2013, dated 2025).
# Where “and” joins values, the source holds several entries; their conditions need not be identical. Identical values can stand only once. Like-named read-outs stand apart in the source and are kept apart here.
# Columns and labels:
# MCF-7 cells = assay: In vitro cytotoxicity, SRB assay, 72 h dose-response; assay type: cell-based; settings: Homo sapiens, MCF7, 72 h
# Text: (§1) Nature Protocols, 1, 1112-1 116.
# MDA-MB-231 cells = assay: as above; assay type: cell-based; settings: Homo sapiens, MDA-MB-231, 72 h
# Text: as §1
# U937 cells = assay: In vitro cytotoxicity, MTT assay, 72 h dose-response; assay type: cell-based, human; settings: CD13+, CD4+
# Experimental: (§6) Briefly, MTT solution was added to the cell cultures at a final concentration of 0.5 mg/mL, and incubated for 1 to 4 hours at 37° C. until formazan crystals are formed. Culture medium is carefully removed from the cell cultures and formazan crystals resuspended in 100 μl DMSO. […] Cell survival was expressed as percentage of control, untreated cell survival.
# RPMI-8226 cells = assay: as above; assay type: cell-based, human; settings: CD13−, CD20−, CD5−, CD4−
# Experimental: as §6
# Karpas-299 cells = assay: as above; assay type: cell-based, human; settings: CD20−, CD5+, CD4+
# Experimental: as §6
# [1] = test system: Raji-clone #10 (high CD5 expression); assay: as above; assay type: cell-based; settings: Homo sapiens
# Experimental: as §6
# [2] = test system: Raji-clone #18 (null CD5 expression); assay: as above; assay type: cell-based; settings: Homo sapiens
# Experimental: as §6
# [3] = test system: NB4, U937, Raji and RPMI-8226 cells; assay: In vitro cytotoxicity, whole CD13 cell panel; settings: for IC50: Homo sapiens
# Text: (§2) All tumor cell lines used in this study were obtained from the American Type Culture Collection (ATCC), unless otherwise indicated; BT-474 (ATCC HTB-20, Breast Ductal Carcinoma), SK-BR-3 (ATCC HTB-30, Breast Adenocarcinoma) and HCC-1954 (ATCC CRL-2338, Breast Ductal Carcinoma), all HER2+; MDA-MB-231 (ATCC HTB-26, Breast Adenocarcinoma) and MCF-7 (ATCC HTB-22 Breast Adenocarcinoma, pleural effusion), all HER2-; SK-OV-3 (ATCC HTB-77, Ovary Adenocarcinoma), HER2+; NB-4 (Acute Promyelocytic Leukemia, APL, CD13+, M. Lanotte et al. (1991) NB4, a maturation inducible cell line with t(15;17) marker isolated from a human acute promyelocytic leukemia (M3). Blood 77, 1080-1086), (CD13+) and U937 (ATCC CRL-1 593.2, Histiocytic Lymphoma, CD13+ and CD4+); Raji (ATCC CCL-86, Burkitt's Lymphoma) (CD13−, CD20+, CD5−, and CD4−); RPMI-8226 (ATCC CRM-CCL-155, Multiple Myeloma) (CD13−, CD20−, CD5− and CD4−); Karpas-299 (DSMZ ACC-31, Non-Hodgkin's Lymphoma) (CD20−, CD5+, and CD4+); MOLT-4 (ATCC CRL-1 582, Acute Lymphoblastic Leukemia, CD5+). In addition, the two Raji cell (ATCC CCL-86, Burkitt's Lymphoma) clones used in this study Raji-clone #10 (high CD5 expression) and Raji-clone18 (null CD5 expression), were provided by Dr. Juan M. Zapata (Instituto de Investigaciones Biomedicas “Alberto Sols”, CSIC-UAM, Madrid, Spain). Cells were maintained at 37° C., 5% CO 2 and 95% humidity in Dulbecco's Modified Eagle's Medium (DMEM) (for MCF and MDA-MB-231 cells), RPMI-1640 (for SK-BR-3, HCC-1954, NB-4, U937, Raji, RPMI-8226, Karpas-299, MOLT-4, Raji-clone #10 and Raji-clone #18 cells), RPMI-1640+1% ITS (for BT-474 cells) or McCOyS (for SK-OV-3 cells), all media supplemented with 10% Fetal Calf Serum (FCS) and 100 units/mL penicillin and streptomycin.
# (§3) For suspension cells: A standard metabolic assay using MTT (3-(4,5-Dimethylthiazol-2-yl)-2,5-diphenyltetrazolium bromide) was adapted for quantitative measurement of cell growth and cytotoxicity, as described in T. Mosmann (1983) Rapid colorimetric assay for cellular growth and survival: Application to proliferation and cytotoxicity assays. J. Immunol. Meth., 65, 55-63. Briefly, MTT solution was added to the cell cultures at a final concentration of 0.5 mg/mL, and incubated for 1 to 4 hours at 37° C. until formazan crystals are formed. Culture medium is carefully removed from the cell cultures and formazan crystals resuspended in 100 μl DMSO. After mixing to assure solubilization, the quantity of formazan (presumably directly proportional to the number of viable cells) is measured by recording changes in absorbance at 570 nm using a plate reading spectrophotometer. Cell survival was expressed as percentage of control, untreated cell survival.
# (§4) The IC50 value refers to the concentration of compound inducing a 50% of cell death as compared to the control cell survival.
# The in vitro cytotoxic activity of ADC9 along with the parent cytotoxic Compounds 1 and 4, was evaluated against different human tumor cell lines expressing or not the CD13 receptor, including NB4 and U937 (CD13 positive cells) and Raji and RPMI-8226 (CD13 negative cells). Standard dose-response (DR) curves for 72 hours were performed.
# [4] = test system: Raji, RPMI-8226 and Karpas-299 cells; assay: In vitro cytotoxicity, whole CD20 cell panel; settings: Homo sapiens
# Text: as §2, §3, §4
# The in vitro cytotoxic activity of ADC12 along with the parent cytotoxic Compounds 1, 4, and 40, was evaluated was assayed against different human cancer cell lines expressing or not the CD20 antigen, including Raji (CD20 positive cells); RPMI-8226 and Karpas-299 (CD20 negative cells). Standard dose-response (DR) curves for 72 hours were performed.
# [5] = test system: Karpas-299, MOLT-4, Raji and RPMI-8226 cells; assay: In vitro cytotoxicity, whole CD5 cell panel; settings: for IC50: Homo sapiens
# Text: as §2, §3, §4
# (§5) The in vitro cytotoxic activity of ADC14 along with the parent cytotoxic Compounds 1, 4, and 40, was evaluated against different human cancer cell lines expressing or not the CD5 antigen, including Karpas-299 and MOLT-4 (both CD5+); Raji and RPMI-8226 (both CD5−). Standard dose-response (DR) curves for 72 hours were performed.
# [6] = test system: Karpas-299, U937, Raji and RPMI-8226 cells; assay: In vitro cytotoxicity, whole CD4 cell panel; settings: Homo sapiens
# Text: as §2, §3, §4
# as §5, with “ADC16” for “ADC14”, “CD4” for “CD5”, “U937” for “MOLT-4”, “CD4+);” for “CD5+);”, “CD4−).” for “CD5−).”
# [7] = Homo sapiens, RPMI-8226, 72 h, read-out: IC50
# [8] = Homo sapiens, KARPAS-299, 72 h, read-out: IC50
# [9] = read-out: IC50 values across the different cell lines tested (range)
# [10] = read-out: mean IC50 value across the whole cell panel
Structure (SMILES),"IC50 (MCF-7 cells; HER2−, 72 h, read-out: IC50)","IC50 (MDA-MB-231 cells; HER2−, 72 h, read-out: IC50)",IC50 (RPMI-8226 cells; [7]),IC50 (Karpas-299 cells; [8]),IC50 ([1]; C#10 (high CD5)),"IC50 ([1]; clone #10, CD5 expressing) [nM]",IC50 ([2]; C#18 (null CD5)),"IC50 ([2]; clone #18, CD5 null) [nM]","IC50 [3, 9]","IC50 [3, 10]","IC50 [4, 9]","IC50 [4, 10]","IC50 [5, 9]","IC50 [5, 10]","IC50 [6, 9]","IC50 [6, 10]",IC50 (U937 cells) [µg/mL],IC50 (U937 cells; read-out: IC50) [nM],IC50 (RPMI-8226 cells),IC50 (RPMI-8226 cells; read-out: IC50),also measured
COC1=CC[C@@H]([C@@H](C)/C=C(C)/C=C\C=C/C(=O)N[C@H](C(=O)N/C=C\C[C@H](C/C=C(\C)Cl)OC(=O)NCCCNC(=O)CCCCCN2C(=O)C=CC2=O)C(C)(C)C)OC1=O [Compound 1],0.0037 µg/mL and 4.32 nM,0.0028 µg/mL and 3.27 nM,0.0025 µg/mL and 2.92 nM,0.0019 µg/mL and 2.22 nM,0.0029 µg/mL and 3.39 nM,3.4,0.038 µg/mL and 44.4 nM,44,0.0008 µg/mL to 0.0063 µg/mL and 0.94 nM to 7.3 nM,0.0028 µg/mL and 3.3 nM,0.0016 µg/mL to 0.0028 µg/mL and 1.9 nM to 3.3 nM,0.0021 µg/mL and 2.5 nM,1.8 to 11 ng/mL,0.0046 µg/mL and 5.3 nM,0.0015 µg/mL to 0.0073 µg/mL and 1.7 nM to 8.6 nM,0.0034 µg/mL and 3.9 nM,–,–,–,–,"IC50 (U937 cells; Homo sapiens, U-937, 72 h, read-out: IC50): 0.00165 µg/mL and 1.93 nM"
COC1=CC[C@@H]([C@@H](C)/C=C(C)/C=C\C=C/C(=O)N[C@H](C(=O)N/C=C\C[C@H](C/C=C(\C)Cl)OC(=O)NCCCN)C(C)(C)C)OC1=O [Compound 4],0.000415 µg/mL and 0.626 nM,0.00031 µg/mL and 0.468 nM,0.000358 µg/mL and 0.539 nM,0.00093 µg/mL and 1.4 nM,0.0099 µg/mL and 14.9 nM,15.7,> 15.1 nM and > 0.01 µg/mL,–,7.9e-05 µg/mL to 0.00265 µg/mL and 0.12 nM to 4 nM,0.00084 µg/mL and 1.2 nM,0.00057 µg/mL to 0.0014 µg/mL and 0.86 nM to 2.1 nM,0.00097 µg/mL and 1.5 nM,0.00063 µg/mL to 0.0027 µg/mL and 0.95 nM to 4.1 nM,0.0013 µg/mL and 1.9 nM,0.00061 µg/mL to 0.0027 µg/mL and 0.92 nM to 4.1 nM,0.0012 µg/mL and 1.8 nM,0.000278,0.419,0.00057 µg/mL,0.859 nM,IC50 (Karpas-299 cells; read-out: IC50): 1.38 nM; IC20 ([1]; C#10 (high CD5)): 0.00465 µg/mL and 7.01 nM; IC20 ([2]; C#18 (null CD5)): 0.00677 µg/mL and 10.2 nM; mean IC50 value across the whole cell panel ([3]; CD13+ and CD13− lines): 1.2 nM; reduction of cytotoxic activity as compared to Compound 40 ([5]; amine containing group): around 1 log
COC1=CC[C@@H]([C@@H](C)/C=C(C)/C=C\C=C/C(=O)N[C@H](C(=O)N/C=C\C[C@H](C/C=C(\C)Cl)OC(N)=O)C(C)(C)C)OC1=O [Compound 40],–,–,–,–,0.495 ng/mL,0.817,0.89 ng/mL,1.47,0.031 to 0.17 ng/mL,8.6e-05 µg/mL and 0.14 nM,8.6e-05 µg/mL to 0.00011 µg/mL and 0.14 nM to 0.19 nM,9.6e-05 µg/mL and 0.16 nM,7.5e-05 µg/mL to 0.00036 µg/mL and 0.12 nM to 0.59 nM,0.00016 µg/mL and 0.26 nM,0.13 nM to 0.47 nM and 7.9e-05 µg/mL to 0.00028 µg/mL,0.00015 µg/mL and 0.25 nM,7.9e-05,0.131,8.65e-05 µg/mL and 0.00012 µg/mL,0.143 nM and 0.198 nM,IC50 (MCF-7 cells): 0.000132 µg/mL and 0.218 nM; IC50 (MDA-MB-231 cells): 0.000173 µg/mL and 0.284 nM; IC50 (Karpas-299 cells): 0.00013 µg/mL; IC50 (Karpas-299 cells; read-out: IC50): 0.142 nM and 0.215 nM
